Molecules are shown by their SMILES.

We go through one compound from patent publication EP4610267A1, “CYCLIC DINUCLEOTIDES AND CONJUGATES THEREOF WITH ANTIBODIES” (priority 2024, dated 2025).

Assay [1] has as its system 293T WT STING reporter cells expressing TROP2. Kind of assay: 293T WT STING reporter cells transiently expressing TROP2, luciferase. It counts as cell-based. The following applies: free Warhead CDN, no antibody; TROP2+ 293T reporter cells. On the procedure:
(§1) HCC1954 and 293T reporter cells were cultured as previously described. HCC1954 cells, which naturally express both Her2 and TROP2, were seeded into collagen-coated 96-well plates at a density of 0.5×10^6 cells/ml (100 µl/well) in RPMI medium supplemented with 10% FBS and Penicillin/Streptomycin. The following day, the medium was completely removed, and serial dilutions of mAb2-CDN and mAb5-CDN conjugates in medium were added to the wells. Levels of the STING-dependent cytokine IP10 (CXCL10) induction were determined in the medium using ProcartaPlex Immunoassays after 24 hours of incubation following the manufacturer's protocol and measured on a MagPix instrument. […] Nonlinear regression curve fitting was applied for EC50 value calculations. The EC50 value represents the concentration of the payload CDN 2.2 conjugated to anti-Her2 mAb2 or anti-TROP2 mAb5 that results in half-maximal levels of IP-10. […] A 50 µL mixture was transferred to white 96-well plates, and luminescence was measured using a TECAN reader.
EC50 values were calculated from an 8-point dose-response curve using GraphPad Prism (La Jolla, USA) with nonlinear regression curve fitting. The EC50 represents the concentration of the payload CDN 2.2 conjugated to anti-Her2 mAb2 or anti-TROP2 mAb5 that results in half-maximal levels of luminescence.

Assay [2] deals with AH1+ CD8+ T cells. Put plainly: Induction of tumor specific AH1+ CD8 T cells in CT26 model (flow cytometry). Format: in vivo, BALB/c mice. The conditions noted are these: blood collected on day 14, i.t. treatment. An excerpt:
The induction of tumor specific AH1+ CD8 T cells was monitored in response to Compound 2.2 treatment. Blood immune cells were collected on day 14 and red blood cells were lysed using red blood cell lysis buffer. Immune cells were immunophenotyped using viability dye (Zombie NIR Fixable Viability Kit, BioLegend) and monoclonal antibodies: BUV395 rat anti-mouse CD19, BUV395 hamster anti-mouse CD49b, APC hamster anti-mouse CD3, BV605 rat anti-mouse CD4, BV510 rat anti-mouse CD8, (all BD Biosciences). Specific staining using MHC-I dextramer: PE labelled AH1 peptide ([…], Immudex) was performed according to the manufacturer's recommendation. Specific and control samples of unstained cells, positive control for dead cells (cells in PBS incubated for 10 min at 65 °C and further stained with a live/dead marker), fluorescence minus one (FMO) and isotype controls (ISO) were prepared. Samples were measured immediately without a fixation step in a single tube format using BD LSRFortessa flow cytometer (BD Biosciences) in 250 µl of FC buffer (PBS containing 5% FBS). Data was acquired using FACS Diva software (version 8.0.1, BD Biosciences). Debris was excluded by forward and side scatter gating followed by doublet and dead cell exclusion. […] The data were analyzed using FlowJo software (version 10, BD Biosciences) and expressed as a frequency (%) of parent population, i.e. CD3+ T cells.

Assay [3] concerns plasma cytokines. Put plainly: In vivo plasma cytokine induction after single i.v. injection (multiplex ELISA, Luminex). The conditions noted are these: single i.v. 1.7mg/kg, Balb/C mice (Fig. 7). On the procedure: Compound 3.3 was conjugated to the engineered light chain C110 and heavy chain C375 of anti-Her2 mAb (mAb3) as described above (mAb3-3.3). Furthermore, the compound was also conjugated to anti-Her2 mAb (mAb2) via inter-chain Cys (mAb2-3.3). A single intravenous injection of 5 mg/kg mAb2-3.3 (DAR 3.8) and 5 mg/kg mAb3-3.3 (DAR 3.6) was administered to Balb/C mice via tail vein injection. Blood samples were collected from the injected animals at 2, 4, 8, and 20 hours post-injection, and plasma cytokines were measured using multiplex ELISA (Luminex).
Compound 3.3 was conjugated to anti-TROP2 mAb4 via inter-chain Cys and to the engineered light chain C110 and heavy chain C375 of anti-TROP2 mAb5, as described above. […] Blood samples were collected from the injected animals at 2, 4, 8, and 20 hours post-injection, and plasma cytokines were measured using multiplex ELISA (Luminex).

In assay [4] the test system is STING-dependent cytokine IP10 (CXCL10) in HCC1954 cells. Put plainly: IP10 (CXCL10) induction in HCC1954 cells. It counts as cell-based, human. The conditions noted are these: free Warhead CDN, no antibody. On the procedure:
as §1, with “IP-10. Twenty million 293T WT STING reporter cells were seeded into two T150 flasks, each containing 30 mL of DMEM with high glucose supplemented with 10% heat-inactivated FBS. One flask was designated for transfected cells, and the other served as a non-transfected control. After 24 hours, the cell culture medium was replaced with 27 mL of fresh media.” for “IP-10.”

Turning to `Nc1ncnc2c1ncn2[C@@H]1O[C@@H]2OCP(=O)(S)O[C@@H]3[C@H](F)[C@@H](COP(=O)(S)OC[C@H]2[C@H]1F)O[C@H]3n1cnc2c(=O)[nH]cnc21` (single isomer, unassigned) [Compound 2.2], the EC50 is 700 nM in assay [1] and 1700 nM in assay [4]. Also, the “frequency of tumor specific CD8 T cell recognizing AH1 peptide compared to the vehicle arm” value in assay [2] is “statistically significantly increased frequency”. Moreover, the plasma cytokine levels entry in assay [3] was “high plasma levels”.
